Results published in patent US9598365B2, “Method for synthesizing cycloalkanyl[b]indoles, cycloalkanyl[b]benzofurans, cycloalkanyl[b]benzothiophenes, compounds and methods of use” (Trustees of Dartmouth College, priority 2012, dated 2017).
pEC50: −log10 of the molar value. Values joined by “and” are separate entries in the source; they are usually repeats but may differ in a detail not shown here. Equal entries are not always repeated. Blank lines part the entries; values can stand above or below the compound they belong to.

Assays:
HCT116 = assay: K-Ras Wnt synthetic lethal, HCT116 KrasSL; format: cell-based; conditions: Homo sapiens, HCT-116, read-out: HCT116 KrasSL % Inhibit
Source text: (§1) Selected compounds of this invention were screened for K-Ras Wnt synthetic lethal, anti-angiogenic activity, Wnt pathway modulatory activity, insulin and GLP-1 secretion modulatory activity, GPR119 receptor agonist activity, mGlu2R antagonist activity, CGRP receptor antagonist activity, Apelin receptor agonist activity and hexokinase 2 inhibitory activity using the PD^2 and TD^2 Screening Panel (Eli Lilly & Company). See Lee, et al. (2011) J. Biomol. Screen. 16:588-602.

RKO = assay: K-Ras Wnt synthetic lethal, RKO KrasSL; format: cell-based; conditions: Homo sapiens, average of three independent experiments, read-out: RKO KrasSL % Inhibit
Source text: as §1

Co1o320 = assay: K-Ras Wnt synthetic lethal, Co1o320 KrasSL; format: cell-based; conditions: read-out: Co1o320 KrasSL % Inhibit
Source text: as §1

SNU-C1 = assay: K-Ras Wnt synthetic lethal, SNU-C1 KrasSL; format: cell-based; conditions: Homo sapiens, read-out: SNU-C1 KrasSL % Inhibit
Source text: as §1

Angio Tube Area = assay: Anti-angiogenic activity, Angio Tube Area; format: cell-based; conditions: read-out: Angio Tube Area % Inhibit
Source text: as §1

Wnt Pathway = assay: Wnt pathway modulatory activity, Osteo bCat; format: cell-based
Source text: as §1

Insulin Secretion = assay: Insulin secretion, Secretion Hi Gluc; format: cell-based
Source text: as §1

hNCI-H716 [1] = assay: hNCI-H716 GLP-1 secretion; format: cell-based
Source text: as §1
(§2) In light of the above results, additional compounds (Table 7) were prepared and phenotypic assays were carried out using hNCI-H716 and mSTC-1 cell lines to monitor GLP-1 secretion (single point (SP) and concentration response curves (CRC)) (Table 8), as well as a secondary assay with pituitary cells (Table 9).

hGPR119 = biological target: T1, hGPR119 (Homo sapiens, UniProt Q8TDV5); assay: GPR119 receptor agonist, hGPR119 agonism; format: cell-based; conditions: @ 10 μM
T1 sequence (Q8TDV5 1-335): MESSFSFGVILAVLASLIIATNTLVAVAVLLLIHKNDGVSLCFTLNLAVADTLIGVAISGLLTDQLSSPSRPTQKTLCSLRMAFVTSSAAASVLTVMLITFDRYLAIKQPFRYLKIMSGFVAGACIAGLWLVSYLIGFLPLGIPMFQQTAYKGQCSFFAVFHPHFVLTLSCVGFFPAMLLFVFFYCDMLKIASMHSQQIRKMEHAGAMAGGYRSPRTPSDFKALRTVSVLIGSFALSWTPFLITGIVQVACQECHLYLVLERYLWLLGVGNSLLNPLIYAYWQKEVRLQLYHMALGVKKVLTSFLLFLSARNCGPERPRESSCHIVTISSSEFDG
Source text: as §1

hMGLUR2 = hMGLUR2 (Homo sapiens, UniProt Q14416); assay: mGlu2R antagonist, hMGLUR2; format: cell-based
Chain of hMGLUR2 (Q14416 19-872): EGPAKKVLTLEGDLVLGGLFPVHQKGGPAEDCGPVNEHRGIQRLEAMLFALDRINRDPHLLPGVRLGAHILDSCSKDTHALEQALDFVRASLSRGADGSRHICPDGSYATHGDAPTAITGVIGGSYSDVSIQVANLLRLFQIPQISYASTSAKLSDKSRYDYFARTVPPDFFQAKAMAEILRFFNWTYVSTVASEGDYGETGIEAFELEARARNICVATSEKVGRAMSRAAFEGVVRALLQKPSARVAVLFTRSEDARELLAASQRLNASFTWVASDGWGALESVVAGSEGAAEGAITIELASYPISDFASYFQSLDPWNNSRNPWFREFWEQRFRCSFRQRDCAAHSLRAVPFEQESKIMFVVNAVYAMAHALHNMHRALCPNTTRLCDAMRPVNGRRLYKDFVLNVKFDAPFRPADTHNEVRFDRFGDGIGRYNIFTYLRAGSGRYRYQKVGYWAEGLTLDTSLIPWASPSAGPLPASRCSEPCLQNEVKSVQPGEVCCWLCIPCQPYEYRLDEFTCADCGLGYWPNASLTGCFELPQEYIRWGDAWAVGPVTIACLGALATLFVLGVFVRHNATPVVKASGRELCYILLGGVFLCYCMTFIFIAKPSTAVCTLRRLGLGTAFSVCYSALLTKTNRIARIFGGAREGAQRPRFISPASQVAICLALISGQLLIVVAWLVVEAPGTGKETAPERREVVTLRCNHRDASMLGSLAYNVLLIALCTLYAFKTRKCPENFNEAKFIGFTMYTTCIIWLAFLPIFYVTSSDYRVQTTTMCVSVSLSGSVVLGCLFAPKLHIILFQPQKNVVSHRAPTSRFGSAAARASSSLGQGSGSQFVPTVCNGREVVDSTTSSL
Source text: as §1

hCGRP1 = hCGRP1 (Homo sapiens, UniProt O60894+Q16602); assay: CGRP receptor antagonist, hCGRP1 antagonism; format: cell-based
Chain of hCGRP1 (Q16602 23-461): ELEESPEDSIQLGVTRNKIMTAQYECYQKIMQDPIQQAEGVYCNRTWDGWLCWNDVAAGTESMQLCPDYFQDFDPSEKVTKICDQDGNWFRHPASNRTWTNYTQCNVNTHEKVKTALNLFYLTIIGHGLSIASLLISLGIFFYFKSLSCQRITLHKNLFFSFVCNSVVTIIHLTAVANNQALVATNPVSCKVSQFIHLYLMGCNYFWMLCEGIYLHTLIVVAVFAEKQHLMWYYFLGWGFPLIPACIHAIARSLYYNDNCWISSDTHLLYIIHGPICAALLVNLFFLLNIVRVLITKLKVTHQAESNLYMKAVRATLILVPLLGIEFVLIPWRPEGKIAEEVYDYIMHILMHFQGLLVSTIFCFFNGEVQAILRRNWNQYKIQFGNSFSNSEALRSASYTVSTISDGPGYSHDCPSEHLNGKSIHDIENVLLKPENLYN
Chain of hCGRP1 (O60894 27-148 partner): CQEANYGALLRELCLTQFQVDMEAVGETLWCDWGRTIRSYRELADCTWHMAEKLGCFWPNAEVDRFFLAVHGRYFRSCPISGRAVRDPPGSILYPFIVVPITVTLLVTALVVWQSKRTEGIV
Source text: as §1

hApelin = biological target: T2, hApelin (Homo sapiens, UniProt P35414); assay: Apelin receptor agonist, hApelin agonism; format: cell-based; conditions: @ 30 μM
T2 sequence (P35414 1-380): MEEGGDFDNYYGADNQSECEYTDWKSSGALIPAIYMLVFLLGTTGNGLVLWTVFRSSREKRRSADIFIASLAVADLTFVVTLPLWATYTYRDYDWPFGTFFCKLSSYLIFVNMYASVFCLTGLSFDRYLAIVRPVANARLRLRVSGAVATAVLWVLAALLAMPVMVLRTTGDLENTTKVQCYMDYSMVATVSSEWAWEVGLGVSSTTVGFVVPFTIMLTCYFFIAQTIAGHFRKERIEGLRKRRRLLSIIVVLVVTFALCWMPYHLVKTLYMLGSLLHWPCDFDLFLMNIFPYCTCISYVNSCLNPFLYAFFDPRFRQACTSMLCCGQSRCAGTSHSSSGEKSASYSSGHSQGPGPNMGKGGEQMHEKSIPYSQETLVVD
Source text: as §1

hHK2 = biological target: T3, hHK2 (Homo sapiens, UniProt P52789); assay: Hexokinase 2 inhibitor, hHK2 ADP-FP; format: biochemical
T3 sequence (P52789 1-917): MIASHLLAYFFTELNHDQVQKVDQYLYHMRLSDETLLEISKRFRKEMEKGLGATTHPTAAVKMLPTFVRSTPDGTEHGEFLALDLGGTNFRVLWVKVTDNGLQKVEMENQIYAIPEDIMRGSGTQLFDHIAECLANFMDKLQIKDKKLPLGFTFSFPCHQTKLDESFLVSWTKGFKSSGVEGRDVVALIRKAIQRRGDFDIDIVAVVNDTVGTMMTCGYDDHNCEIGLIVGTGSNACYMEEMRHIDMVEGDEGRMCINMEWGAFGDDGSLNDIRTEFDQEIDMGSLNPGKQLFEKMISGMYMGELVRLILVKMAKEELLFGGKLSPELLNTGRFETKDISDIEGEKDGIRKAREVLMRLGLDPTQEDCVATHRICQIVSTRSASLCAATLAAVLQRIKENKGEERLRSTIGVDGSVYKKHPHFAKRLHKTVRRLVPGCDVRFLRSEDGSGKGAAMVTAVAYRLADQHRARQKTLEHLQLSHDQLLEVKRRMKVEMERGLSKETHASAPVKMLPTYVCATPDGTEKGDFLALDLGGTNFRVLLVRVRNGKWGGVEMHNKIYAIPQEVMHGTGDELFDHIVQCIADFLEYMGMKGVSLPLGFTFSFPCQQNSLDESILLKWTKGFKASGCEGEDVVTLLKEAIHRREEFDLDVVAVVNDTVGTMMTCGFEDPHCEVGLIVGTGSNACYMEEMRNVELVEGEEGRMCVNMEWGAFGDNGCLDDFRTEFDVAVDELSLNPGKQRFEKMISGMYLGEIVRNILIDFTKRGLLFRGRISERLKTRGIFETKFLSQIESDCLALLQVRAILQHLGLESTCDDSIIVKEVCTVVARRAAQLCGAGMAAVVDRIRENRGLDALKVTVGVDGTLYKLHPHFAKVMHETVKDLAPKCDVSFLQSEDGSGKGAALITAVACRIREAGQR
Source text: as §1

mSTC-1 = mSTC-1 GLP-1 secretion; format: cell-based; conditions: concentration response curve, read-out: Primary CRC (EC50, μM) mSTC
Experimental: as §2

Pituitary Cells = assay: Secondary assay, pituitary cells growth hormone secretion; format: cell-based; conditions: @ 3.3 μM
Experimental: as §2

hNCI-H716 [2] = assay: hNCI basal LDH secretion; format: cell-based; conditions: read-out: Primary CRC (EC50, μM) hNCI Basal
Experimental: as §2

[3] = Plasma compound exposure after oral dosing in mice; format: in vivo, Mice (male C57BL/6); conditions: oral 100 mg/kg, 30 minutes post-dose
Experimental: (§3) Mice (male C57BL/6, 8-10 weeks of age) were fasted overnight by being placed in a clean cage without food. The next day, all mice were weighed and assigned to groups of similar body weights. Test compounds were formulated in 1% HEC, 0.25% TWEEN 80, 0.05% antifoam (vehicle control). Compounds 11ls and llu were orally dosed (100 mg/kg) and cardiac sticks were done on CO2 euthanized mice at 30 minutes post-dose. Blood (500+μL whole blood) from the cardiac stick was placed in chilled EDTA-plasma tubes with inhibitors, DPP4 inhibitor (5 μL/500 μL blood) and aprotinin (bovine lung, […]/500 μL blood), and stored on ice. Plasma was separated by centrifugation and aliquoted for compound exposure to total GIP and GLP-1 (X-36 amide). Plates for compound exposure were analyzed for absorption, distribution, metabolism, and excretion, while conventional kits were used for GLP-1 (x-36) amide (Mesoscale) and GIP (Millipore) analyses.

GLP-1 (X-36 amide) = assay: Plasma GLP-1 response to oral compound in mice; format: in vivo, Mice (male C57BL/6); conditions: oral 100 mg/kg, plasma 30 minutes post-dose
Experimental: as §3

GIP = assay: Plasma GIP response to oral compound in mice; format: in vivo, Mice (male C57BL/6); conditions: oral 100 mg/kg, plasma 30 minutes post-dose
Experimental: as §3

EC50 (hNCI-H716 [1]; GLP-1 secretion, concentration response curve, read-out: Primary CRC (EC50, μM) hNCI): 29.1 µM and 17.6 µM and 16.4 µM | pEC50 (hNCI-H716 [1]; average of three independent experiments, read-out: hNCI GLP-1 Secretion EC50): 4.54 | pEC50 (hNCI-H716 [1]; secretion and/or production of GLP-1, read-out: EC50 values (Table 6)): 4.54 | hGPR119 agonism % Stimulation (hGPR119): −2.3% | inhibition at 50 µM (hMGLUR2): -19.7% | inhibition at 30 µM (hCGRP1): 67.7% | hApelin agonism % Stimulation (hApelin): −52.8% | inhibition at 20 µM (hHK2): 3.2% | EC50 (mSTC-1): 2.4 µM and 4.1 µM and 2.2 µM
SMILES: CC1(C)c2c([nH]c3ccc(Br)cc23)C2C=CC1C2 (stereo not drawn) [Compound 11t]
inhibition at 0.2 µM (HCT116; @ 0.2 μM): 5.3% | inhibition at 2 µM (HCT116; @ 2 μM): -11.5% | inhibition at 20 µM (HCT116; @ 20 μM): 104% | inhibition at 0.2 µM (RKO; @ 0.2 μM): -5.8% | inhibition at 2 µM (RKO; @ 2 μM): 17.6% | inhibition at 20 µM (RKO; @ 20 μM): 102% | inhibition at 0.2 µM (Co1o320; @ 0.2 μM): -6.6% | inhibition at 2 µM (Co1o320; @ 2 μM): 23.1% | inhibition at 20 µM (Co1o320; @ 20 μM): 152% | inhibition at 0.2 µM (SNU-C1; @ 0.2 μM): -1% | inhibition at 2 µM (SNU-C1; @ 2 μM): -19.1% | inhibition at 20 µM (SNU-C1; @ 20 μM): 107% | inhibition at 2 µM (Angio Tube Area; @ 2 μM): 8% | inhibition at 10 µM (Angio Tube Area; @ 10 μM): 38% | Osteo bCat % Stimulation (Wnt Pathway; @ 2 μM): 1.8% | Osteo bCat % Stimulation (Wnt Pathway; @ 10 μM): 5.5% | Secretion Hi Gluc % Stimulation (Insulin Secretion; @ 2 μM): 0.1% | Secretion Hi Gluc % Stimulation (Insulin Secretion; @ 10 μM): 19.1% | activation at 2 µM (hNCI-H716 [1]; 2 μM, GLP-1 secretion, single point, read-out: Primary SP hNCI (% Stim.)): 0% | activation at 20 µM (hNCI-H716 [1]; 20 μM, GLP-1 secretion, single point, read-out: Primary SP hNCI (% Stim.)): 35.2% | hNCI GLP-1 Secretion % Stimulation (hNCI-H716 [1]; @ 2 μM): 0% | hNCI GLP-1 Secretion % Stimulation (hNCI-H716 [1]; @ 20 μM): 35.2% | Pituitary Cells (Growth Hormone Secretion, % Stimulation) (Pituitary Cells): −12.6% and −7.1%

EC50 (mSTC-1): 2 µM and 3.2 µM | EC50 (hNCI-H716 [2]): 35.8 µM | mean (±standard deviation) plasma levels [3]: 201.6 ± 37.24 ng/mL
SMILES: CC1(C)c2c([nH]c3ccc(I)cc23)C2C=CC1C2 (stereo not drawn) [Compound 11u]
Primary SP hNCI (% Stim.) (hNCI-H716 [1]; 2 μM, GLP-1 secretion, single point): 0% | Primary SP hNCI (% Stim.) (hNCI-H716 [1]; 20 μM, GLP-1 secretion, single point): 57% | Avg. GLP-1 (pg/mL) ±SEM (GLP-1 (X-36 amide)): 7.66 ± 0.89 pg/mL | Avg. GIP (pg/mL) ±SEM (GIP): 26.23 ± 10.35 pg/mL
